# Read-outs that look alike come from different tables or passages of the source.
# What was measured:
# [1] = Plasma and brain levels after i.v. dosing (blood-brain barrier); type: in vivo, rat; conditions: for concentration at 0.25 h / concentration at 1 h / concentration at 4 h: intravenous, i.v.
# Protocol: Male SD rats were intravenous injection with Cpd.51, blood and brain tissues were collected 15 min, 1 h, 4 h, 6 h, 8 h and 24 h after drug administration. Samples were measured by a Shimadzu chromatography system (Shimadzu, Kyoto, Japan) coupled with an AB Sciex triple quadrupole 4500 mass spectrometer (SCIEX Triple Quad™ 4500 LC-MS/MS, Applied Biosystems Sciex, Ontario, Canada) using Analyst 1.4.2 software. A HPLC column (ACQUITY UPLC BEH C18, 2.1 × 50 mm, 1.7 μm) were used. Protein precipitation method was used for detection: 50 μL plasma sample or brain homogenate sample were added with 200 μL acetonitrile containing internal standard for precipitation, then vortexed for 3 min. The supernatant was injected into system for analysis after centrifugation.
# [2] = Microsomal metabolic stability, rat; type: in vitro ADME; conditions: rat liver microsomes
# Protocol: (§1) The liver microsomal incubation system comprised human, dog, or rat liver microsomal protein (0.75 mg/mL), nicotinamide adenine dinucleotide phosphate (NADPH) generation system, potassium phosphate buffer (0.1 M, pH 7.4), substrate, and inhibitor. The assay was conducted by first preparing a potassium phosphate buffer. Compounds and liver microsomes were then diluted and pre-incubated at 37 °C before initiating the reaction with NADPH. Aliquots were quenched with acetonitrile containing internal standard at specified time points. After sample processing (shaking and centrifugation), the supernatants were analyzed by LC-MS/MS to determine metabolic stability.
# [3] = In vitro hepatic microsomal stability, overall statement; type: in vitro ADME, human, dog, rat
# Protocol: as §1
# tMCAO rats = assay: Long-term recovery after tMCAO (survival, body weight, behaviour); type: in vivo, rat; conditions: 5 mg/kg tail vein injection for 7 d
# Protocol: To assess the degree of neurological impairment, we conducted modified Neurological Severity Score (mNSS) according to previous experience. The investigator was blinded to the grouping situation during the whole experiment.
# On postoperative day 3 two wooden boards of identical size were joined at a 30° angle, with a narrow gap retained at the junction. The rat was positioned facing the apex of the angle. When it advanced into the deeper part of the angle, bilateral whisker contact with the boards triggered a characteristic rearing response, followed by a turn to face the opposite direction. Each rat underwent 15 trials, and the number of right turns was recorded. The higher the right-turn ratio, the more severe the injury.
# Rats were placed on a horizontal, stainless steel wire grid. The grid was then smoothly rotated 180 degrees to an inverted position and held stationary at a height of 0.8 m. A stopwatch was started immediately upon inversion to measure the latency to fall. The test was terminated if the animal remained on the grid for 60 s, at which point it was gently returned to its home cage, and a score of 60 s was recorded.
# The Y-maze apparatus consisted of three symmetrically arranged enclosed arms (typically labeled Arms A, B, and C), each positioned 120° apart. At the start of each trial, the subject was placed in Arm A and allowed to move freely through the maze for 8 min. Spatial working memory was evaluated by calculating the spontaneous alternation rate, using the following formula:
# Following a 2 h acclimation period, the rats were within an open field cubic box (100 × 100 × 40 cm^3) and allowed 5 min of unrestricted movement. The travel distance and the time spent in the central area were recorded.
# The spatial learning and memory of rats were assessed using the Morris water maze (MWM) from post-operative days 23 to 26. Over four consecutive days, animals underwent training trials in which they were required to locate a submerged escape platform within 60 s. Each rat was gently placed into the water facing the pool wall. If the rat found the platform and remained on it for 10 s, the escape latency was recorded. If the platform was not found within 60 s, the rat was guided onto it and allowed to stay for 10 s, and the latency was recorded as 60 s. Following the training phase, the platform was removed, and a visual spatial memory test lasting for 60 s was conducted to assess the retention of memory. The number of platform-location crossings and the time spent in the target quadrant were recorded and analyzed.
# Nrf2 = Nrf2 (Homo sapiens, UniProt Q14145); assay: Nrf2 nuclear translocation by immunofluorescence; type: cell-based; conditions: 100 nM, SH-SY5Y cells and primary cortical neurons
# Protocol: Immunostaining: cells were fixed with 4% paraformaldehyde for 20 min and then incubated with blocking solution (10% normal goat serum, 0.5% Triton X-100 in PBS) for 1 h at room temperature. Then, the samples were incubated overnight with primary antibodies: anti-Nrf2 (1:200, CST), anti-DHRS3 (1:300, Proteintech), anti-NeuN (1:500, Servicebio). When evaluating the extraction efficiency of primary cortical neurons, we performed co-staining with β-tubulin (1:200, Abcam) and Synaptophysin (1:300, ABclonal). After being washed with PBST three times, the samples were incubated with the corresponding secondary antibodies for 2 h in the dark. The nuclei were stained with DAPI (C1006-200mL, Beyotime, China) for 20 min. Finally, images were captured with a fluorescence microscope. Fluorescence integrated density was measured by ImageJ as previously described.
# DHRS3-Nrf2 interaction = molecular target: T1, DHRS3-Nrf2 interaction (Homo sapiens, UniProt O75911); assay: GST pull-down of Nrf2 and DHRS3; type: binding; conditions: 100 nM, purified GST-tagged Nrf2 and DHRS3 proteins
# T1 construct: purchased Ybio YB710012 (GST-Nrf2); YB765100 (DHRS3)
# T1 sequence (O75911 1-302): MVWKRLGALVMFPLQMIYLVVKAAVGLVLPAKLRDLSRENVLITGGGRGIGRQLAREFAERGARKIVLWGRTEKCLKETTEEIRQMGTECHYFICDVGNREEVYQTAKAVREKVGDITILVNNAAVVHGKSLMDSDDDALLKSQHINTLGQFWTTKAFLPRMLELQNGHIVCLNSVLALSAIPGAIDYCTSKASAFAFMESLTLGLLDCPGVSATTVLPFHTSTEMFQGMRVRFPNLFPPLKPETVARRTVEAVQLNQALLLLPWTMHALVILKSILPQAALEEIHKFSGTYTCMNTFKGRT
# Protocol: GST-Nrf2 (YB710012, Ybio, China) or GST (Ag0040, Proteintech, China, as control) proteins were mixed with GST Resin (EA-IP-K008, Elabscience Biotechnology, China) for 2 h incubation on the shaker at 4 °C. Subsequently, both Cpd.51 (100 nM) and DHRS3 (YB765100, Ybio, China) were added to the mixture and rotated overnight at 4 °C [40]. Then, following the instructions, the sample buffer was added and heated to 100 °C for 10 min. After completing all steps, the mixture was centrifuged, and the supernatant was collected for western blotting analysis.
# Chain of Nrf2 (Q14145 whole entry): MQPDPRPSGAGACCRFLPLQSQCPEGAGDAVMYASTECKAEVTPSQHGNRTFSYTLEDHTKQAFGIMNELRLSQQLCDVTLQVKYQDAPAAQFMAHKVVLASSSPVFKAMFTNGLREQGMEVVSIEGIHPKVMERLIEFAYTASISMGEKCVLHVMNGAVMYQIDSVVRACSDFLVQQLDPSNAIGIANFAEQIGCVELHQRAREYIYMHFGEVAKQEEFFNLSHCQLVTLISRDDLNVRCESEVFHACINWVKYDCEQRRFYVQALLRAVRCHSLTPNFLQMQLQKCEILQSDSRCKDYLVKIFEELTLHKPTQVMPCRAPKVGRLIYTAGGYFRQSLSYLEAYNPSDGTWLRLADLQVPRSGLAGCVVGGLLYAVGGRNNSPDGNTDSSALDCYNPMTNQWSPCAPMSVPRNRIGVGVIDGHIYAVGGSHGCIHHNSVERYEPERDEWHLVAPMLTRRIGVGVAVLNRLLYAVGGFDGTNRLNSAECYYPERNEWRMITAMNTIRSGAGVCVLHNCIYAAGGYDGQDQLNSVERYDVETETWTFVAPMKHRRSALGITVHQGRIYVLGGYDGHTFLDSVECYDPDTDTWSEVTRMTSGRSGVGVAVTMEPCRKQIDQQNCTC
# Chain of Nrf2 (Q16236 whole entry, further chain): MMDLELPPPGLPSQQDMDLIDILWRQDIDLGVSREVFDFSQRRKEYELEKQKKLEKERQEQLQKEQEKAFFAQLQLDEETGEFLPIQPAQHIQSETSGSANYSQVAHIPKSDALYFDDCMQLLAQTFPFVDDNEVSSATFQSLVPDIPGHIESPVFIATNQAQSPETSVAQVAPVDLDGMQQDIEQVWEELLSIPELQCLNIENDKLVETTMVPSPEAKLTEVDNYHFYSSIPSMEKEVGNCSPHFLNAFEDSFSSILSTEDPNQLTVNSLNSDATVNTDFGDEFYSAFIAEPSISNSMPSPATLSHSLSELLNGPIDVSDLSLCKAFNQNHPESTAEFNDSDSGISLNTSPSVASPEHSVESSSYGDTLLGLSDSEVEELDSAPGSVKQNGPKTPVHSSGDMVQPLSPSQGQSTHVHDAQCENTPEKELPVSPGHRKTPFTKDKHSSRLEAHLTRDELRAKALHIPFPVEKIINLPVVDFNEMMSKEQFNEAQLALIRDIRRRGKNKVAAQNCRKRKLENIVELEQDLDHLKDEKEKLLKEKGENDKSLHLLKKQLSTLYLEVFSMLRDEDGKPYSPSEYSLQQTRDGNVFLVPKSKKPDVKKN
smiles,measurement,setting,value
CC1(C)CCC2(C(=O)NO)CCC3(C)C(C(=O)C=C4C5(C)C=C(C#N)C(=O)C(C)(C)C5CCC43C)C2C1 (centres unmarked) [Cpd.51],distribution to brain tissue,[1]; intravenous administration,relatively effective distribution to brain tissue
same,concentration at 0.25 h,"[1]; male, SD, rat, brain, 5 mg/kg, 0.25 h, read-out: Brain",86.7 ± 49.3 ng/g
same,concentration at 1 h,"[1]; male, SD, rat, brain, 5 mg/kg, 1 h, read-out: Brain",29.5 ± 17.5 ng/g
same,concentration at 4 h,"[1]; male, SD, rat, brain, 5 mg/kg, 4 h, read-out: Brain",10.3 ± 4 ng/g
same,Kp at 0.25 h,"[1]; male, SD, rat, brain, iv, 5 mg/kg, 0.25 h",0.07 ± 0.04
same,Kp at 1 h,"[1]; male, SD, rat, brain, iv, 5 mg/kg, 1 h",0.16 ± 0.12
same,Kp at 4 h,"[1]; male, SD, rat, brain, iv, 5 mg/kg, 4 h",0.28 ± 0.14
same,concentration at 0.25 h,"[1]; male, SD, rat, plasma, 5 mg/kg, 0.25 h, read-out: Plasma",1290 ± 68 ng/mL
same,concentration at 1 h,"[1]; male, SD, rat, plasma, 5 mg/kg, 1 h, read-out: Plasma",198 ± 44 ng/mL
same,concentration at 4 h,"[1]; male, SD, rat, plasma, 5 mg/kg, 4 h, read-out: Plasma",39.5 ± 10.4 ng/mL
same,"Remainig (%, t = 60 min)",[2],51.1%
same,CLint scaled,"[2]; rat, pH 7.4",41 mL/min/kg
same,half-life,"[2]; rat, pH 7.4",1.01 h
same,metabolic stability in microsomes,[3],moderate metabolic stability
same,"Morris water maze, spatial learning and memory",tMCAO rats,only a modest capacity to improve these cognitive functions
same,"body weight and mNSS scores, long-term",tMCAO rats,significantly improved body weight and mNSS scores
same,mortality after tMCAO,tMCAO rats,reduced mortality
same,"corner, inverted screen, Y maze and open field tests",tMCAO rats; vs model group,"exhibited improvements in neurological deficits, motor abilities, and spatial working and reference memory"
same,Nrf2 nuclear translocation,Nrf2,Nrf2 nuclear translocation within 15 min
same,direct DHRS3-Nrf2 binding (GST pull-down),DHRS3-Nrf2 interaction,significantly reduced

# Reference: publication PMC13081163, “Discovery of a novel Nrf2 activator that modulates mitochondrial function in neurons by regulating DHRS3-Nrf2 interaction after ischemic stroke” (Theranostics, 2026)
